From PubChem BioAssay AID1259411 (Chemical Carcinogenesis Research Information System (CCRIS), 2018) come the findings set out here.

Activity calls are given as the source filed them. The rule behind the calls is not given here.

The data set relates to rodent carcinogenicity bioassays, tumor incidence. Briefly: CCRIS carcinogenicity studies. An outline of the steps:
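NCI-built, expert-reviewed records of carcinogenicity and related test outcomes (mutagenicity, tumor promotion/inhibition) compiled from published and report sources, historical span 1985-2011, not updated.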

Regarding `Nc1ccccc1C(=O)OC/C=C/c1ccccc1`, the carcinogen call runs as follows: (Species: MOUSE, Strain/Sex: B6C3F1/FEMALE, Route: ORAL, Dose: 0, 15000, 30000 PPM IN DIET FOR 103 WK (STUDY DURATION: 105-107 WK), Dose: 0, 15000, 30000 PPM IN DIET FOR 103 WK (STUDY DURATION: 105-107 WK), Tumor Site: Type of Lesion: LIVER: HEPATOCELLULAR ADENOMA OR CARCINOMA) “active; positive”; (Species: MOUSE, Strain/Sex: B6C3F1/MALE, Route: ORAL, Dose: 0, 15000, 30000 PPM IN DIET FOR 103 WK (STUDY DURATION: 105-107), Dose: 0, 15000, 30000 PPM IN DIET FOR 103 WK (STUDY DURATION: 105-107), Tumor Site: Type of Lesion: LIVER: HEPATOCELLULAR ADENOMA OR CARCINOMA) “active; positive”; (Species: RAT, Strain/Sex: F344/FEMALE, Route: ORAL, Dose: 0, 15000, 30000 PPM IN DIET FOR 103 WK (STUDY DURATION: 105-107 WK), Dose: 0, 15000, 30000 PPM IN DIET FOR 103 WK (STUDY DURATION: 105-107 WK)) “inactive; negative”; (Species: RAT, Strain/Sex: F344/MALE, Route: ORAL, Dose: 0, 15000, 30000 PPM IN DIET FOR 103 WK (STUDY DURATION: 105-107), Dose: 0, 15000, 30000 PPM IN DIET FOR 103 WK (STUDY DURATION: 105-107), Tumor Site: Type of Lesion: PANCREAS: ACINAR CELL ADENOMA OR CARCINOMA, KIDNEY (CORTEX): ADENOMA OR ADENOCARCINOMA (NOS)) “active; positive”.
For the compound `O=[Si]=O`, the carcinogen call reads like this: (Species: MOUSE, Strain/Sex: STRAIN-A/MALE, Route: INTRATRACHEAL, Dose: 0, 9.75 MG/KG IN SALINE 1/WK FOR 15 WK (STUDY DURATION: 20 WK)) “inactive; negative”; (Species: RAT, Strain/Sex: F344/FEMALE, Route: INHALATION, Dose: 0, 50 MG/M3 6 HR/D 5 D/WK FOR UP TO 24 MO (STUDY DURATION: 24 MO), Tumor Site: Type of Lesion: LUNG: CARCINOMA OR ADENOMA) “active; positive”; (Species: RAT, Strain/Sex: F344/MALE,FEMALE, Route: INHALATION, Dose: 0, 1 MG/M3 6 HR/D 5 D/WK FOR 24 MO (STUDY DURATION: 25.5 MO), Tumor Site: Type of Lesion: LUNG: TUMOR) “active; positive”; (Species: RAT, Strain/Sex: F344/MALE, Route: INHALATION, Dose: 0, 50 MG/M3 6 HR/D 5 D/WK FOR UP TO 24 MO (STUDY DURATION: 24 MO)) “inactive; negative”; (Species: RAT, Strain/Sex: INBRED-W/MALE, FEMALE, Route: INTRAPERITONEAL, Dose: 20 MG ALKALINE-WASHED MIN-U-SIL CRYSTALS (A COMMERCIAL FINE QUARTZ, 99% PURE) IN 0.4 ML SALINE AUTOCLAVED SUSPENSION (ST, Tumor Site: Type of Lesion: HEMATOPOIETIC SYSTEM: THYMOMA OR LYMPHOSARCOMA, LYMPHOMA) “active; positive”; (Species: RAT, Strain/Sex: INBRED-W/MALE, FEMALE, Route: INTRAPLEURAL, Dose: 20 MG ALKALINE-WASHED CRYSTALS (CRISTABOLITE FROM QUARTZ EXPOSED TO HIGH TEMPERATURE) IN A 0.4 ML SALINE AUTOCLAVED SUSP, Tumor Site: Type of Lesion: HEMATOPOIETIC SYSTEM: MALIGNANT HISTIOCYTIC LYMPHOMA, THYMOMA OR LYMPHOSARCOMA, LYMPHOMA) “active; positive”. Besides, the carcinogen call by setting is: (Species: RAT, Strain/Sex: INBRED-W/MALE, FEMALE, Route: INTRAPLEURAL, Dose: 20 MG ALKALINE-WASHED CRYSTALS <5 µM IN SIZE IN A 0.4 ML SALINE AUTOCLAVED SUSPENSION INTO RIGHT AXILLA (STUDY DURATION:, Tumor Site: Type of Lesion: HEMATOPOIETIC SYSTEM: MALIGNANT HISTIOCYTIC LYMPHOMA, MALIGNANT TUMOR) “active; positive”; (Species: RAT, Strain/Sex: INBRED-W/MALE, FEMALE, Route: INTRAPLEURAL, Dose: 20 MG ALKALINE-WASHED MIN-U-SIL CRYSTALS (A COMMERCIAL FINE QUARTZ, 99% PURE) IN 0.4 ML SALINE AUTOCLAVED SUSPENSION INT, Tumor Site: Type of Lesion: HEMATOPOIETIC SYSTEM: LYMPHOMA) “active; positive”; (Species: Rat, Strain/Sex: Wistar/Female (48/group), Route: Intratracheal, Dose: 3 mg of 0.09-0.2 um particles given as 10 instillations before wk 26, study duration 112 wk or no treatment, Tumor Site: Type of Lesion: Lung: Bronchiolo-alveolar adenoma (2/37 experimental animals vs 0/46 control animals)) “active; positive, low incidence of benign tumors”.
As for `CNC(=O)CSP(=S)(OC)OC`, the carcinogen call is, setting by setting: (Species: MOUSE, Strain/Sex: B6C3F1/FEMALE, Route: ORAL, Dose: 0, 250, 500 PPM IN DIET, Dose: 0, 250, 500 PPM IN DIET) “inactive; negative”; (Species: MOUSE, Strain/Sex: B6C3F1/MALE, Route: ORAL, Dose: 0, 250, 500 PPM IN DIET, Dose: 0, 250, 500 PPM IN DIET) “inactive; negative”; (Species: RAT, Strain/Sex: OSBORNE-MENDEL/FEMALE, Route: ORAL, Dose: 0, 192, 384 PPM IN DIET, TWA, Dose: 0, 192, 384 PPM IN DIET, TWA) “inactive; negative”; (Species: RAT, Strain/Sex: OSBORNE-MENDEL/MALE, Route: ORAL, Dose: 0, 155, 310 PPM IN DIET, TWA) “inactive; negative”; (Species: RAT, Strain/Sex: WISTAR/FEMALE, Route: ORAL, Dose: 0, 2, 20, 200 PPM IN DIET FOR 2 YR (STUDY DURATION: 2 YR), Dose: 0, 2, 20, 200 PPM IN DIET FOR 2 YR (STUDY DURATION: 2 YR)) “inactive; negative”; (Species: RAT, Strain/Sex: WISTAR/MALE, Route: ORAL, Dose: 0, 2, 20, 200 PPM IN DIET FOR 2 YR (STUDY DURATION 2 YR), Dose: 0, 2, 20, 200 PPM IN DIET FOR 2 YR (STUDY DURATION 2 YR)) “inactive; negative”.
On to `Cn1c(NO)nc2ncc(-c3ccccc3)cc21`, for which, under “Species: RAT, Strain/Sex: ACI/SEG/MALE, Route: INTRAPERITONEAL, Dose: 0, 50 UMOL/KG BW 2X/WK FOR 10 WK BEGINNING AT 3 D OF AGE (STUDY DURATION: 68 WK)”, the carcinogen call is “inactive; negative”.
In the case of `CCN(N=O)C(=O)NCC(C)=O`, the carcinogen call (Species: RAT, Strain/Sex: F344/FEMALE, Route: GAVAGE, Dose: 0, 9.5, 19 MG/ML IN CORN OIL/ETHYL ACETATE (2:1) 2/WK FOR 30 WK (STUDY DURATION: LIFETIME), Dose: 0, 9.5, 19 MG/ML IN CORN OIL/ETHYL ACETATE (2:1) 2/WK FOR 30 WK (STUDY DURATION: LIFETIME), Tumor Site: Type of Lesion: LUNG: TUMOR, MAMMARY GLAND: CARCINOMA, UTERUS: TUMOR, FORESTOMACH: TUMOR, SPLEEN: TUMOR, ZYMBAL GLAND: TUMOR, SMALL INTE, Tumor Site: Type of Lesion: LUNG: TUMOR, MAMMARY GLAND: CARCINOMA, UTERUS: TUMOR, FORESTOMACH: TUMOR, SPLEEN: TUMOR, ZYMBAL GLAND: TUMOR, SMALL INTE) is “active; positive”; the carcinogen call (Species: RAT, Strain/Sex: F344/FEMALE, Route: ORAL, Dose: 0, 40, 80 MG/L IN DRINKING WATER 5 D/WK FOR 30 WK (STUDY DURATION: LIFETIME), Dose: 0, 40, 80 MG/L IN DRINKING WATER 5 D/WK FOR 30 WK (STUDY DURATION: LIFETIME), Tumor Site: Type of Lesion: LIVER: TUMOR, LUNG: TUMOR, MAMMARY GLAND: CARCINOMA, UTERUS: TUMOR, THYROID: FOLLICULAR TUMOR, COLON: TUMOR, NERVOUS SYS, Tumor Site: Type of Lesion: LIVER: TUMOR, LUNG: TUMOR, MAMMARY GLAND: CARCINOMA, UTERUS: TUMOR, THYROID: FOLLICULAR TUMOR, COLON: TUMOR, NERVOUS SYS) was “active; positive”; the carcinogen call (Species: RAT, Strain/Sex: F344/MALE, Route: GAVAGE, Dose: 0, 9.5, 19 MG/ML IN CORN OIL/ETHYL ACETATE (2:1) 2/WK FOR 30 WK (STUDY DURATION: LIFETIME), Dose: 0, 9.5, 19 MG/ML IN CORN OIL/ETHYL ACETATE (2:1) 2/WK FOR 30 WK (STUDY DURATION: LIFETIME), Tumor Site: Type of Lesion: LIVER: TUMOR, LUNG: TUMOR, MESOTHELIUM: TUMOR, NERVOUS SYSTEM: TUMOR, THYROID: FOLLICULAR TUMOR, FORESTOMACH: TUMOR, SPL, Tumor Site: Type of Lesion: LIVER: TUMOR, LUNG: TUMOR, MESOTHELIUM: TUMOR, NERVOUS SYSTEM: TUMOR, THYROID: FOLLICULAR TUMOR, FORESTOMACH: TUMOR, SPL) was “active; positive”; the carcinogen call (Species: RAT, Strain/Sex: F344/MALE, Route: ORAL, Dose: 0, 40, 80 MG/L IN DRINKING WATER FOR 5 D/WK FOR 30 WK (STUDY DURATION: LIFETIME), Dose: 0, 40, 80 MG/L IN DRINKING WATER FOR 5 D/WK FOR 30 WK (STUDY DURATION: LIFETIME), Tumor Site: Type of Lesion: LUNG: TUMOR, THYROID: FOLLICULAR TUMOR, COLON: TUMOR, MESOTHELIUM: TUMOR, NERVOUS SYSTEM: TUMOR, SKIN: TUMOR, ZYMBAL GLA, Tumor Site: Type of Lesion: LUNG: TUMOR, THYROID: FOLLICULAR TUMOR, COLON: TUMOR, MESOTHELIUM: TUMOR, NERVOUS SYSTEM: TUMOR, SKIN: TUMOR, ZYMBAL GLA) is “active; positive”.
